Measurements: US9096591B2, “Tetracyclic compounds” (Medivation Technologies, Inc., priority 2007, dated 2015)
Read-outs that look alike come from different tables or passages of the source.

Key:
[1] = biological target: T1, human recombinant histamine H2 receptor (Homo sapiens, UniProt P25021); test: Histamine H2 radioligand binding ([125I]Aminopotentidine); conditions: for inhibition at 0.3 µM: 0.3 μM compound
T1 construct: expressed in transfected cells; host or cells: CHO-K1 cells
Summary of the method: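 This radioligand binding assay measured displacement of [125I]Aminopotentidine from recombinant human histamine H2 receptors. Compounds were dissolved in 1% DMSO vehicle. Specific binding was calculated by subtracting non-specific binding, defined using 3 μM Tiotidine, and activity was reported as percentage inhibition of that specific binding.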

[2] = biological target: T2, human recombinant adrenergic α1D receptor (Homo sapiens, UniProt P25100); test: Adrenergic α1D radioligand binding ([3H]Prozosin); set-up: Inhibition of ligand binding, Adren. alpha1D: concentration or dose not given beside the values; conditions: for Inhibition of ligand binding, Adren. alpha1D: percent inhibition of specific binding
T2 construct: expressed in transfected cells; host or cells: HEK-293 cells
T2 sequence (P25100 1-572): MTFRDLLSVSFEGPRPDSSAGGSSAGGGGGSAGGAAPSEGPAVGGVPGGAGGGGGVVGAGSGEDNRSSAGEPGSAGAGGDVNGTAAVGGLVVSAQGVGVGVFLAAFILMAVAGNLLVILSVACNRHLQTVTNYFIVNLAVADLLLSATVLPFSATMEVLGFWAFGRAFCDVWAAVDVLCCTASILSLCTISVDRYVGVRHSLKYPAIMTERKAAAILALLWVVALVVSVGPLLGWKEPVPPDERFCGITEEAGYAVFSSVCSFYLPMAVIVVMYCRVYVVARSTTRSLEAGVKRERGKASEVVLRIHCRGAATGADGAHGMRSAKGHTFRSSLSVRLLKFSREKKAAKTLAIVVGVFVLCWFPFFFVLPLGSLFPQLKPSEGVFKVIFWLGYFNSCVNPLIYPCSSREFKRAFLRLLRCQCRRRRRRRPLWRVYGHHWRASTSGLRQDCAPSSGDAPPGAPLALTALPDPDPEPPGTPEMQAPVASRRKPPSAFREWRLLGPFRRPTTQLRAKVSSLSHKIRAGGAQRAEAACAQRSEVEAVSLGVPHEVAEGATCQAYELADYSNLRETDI
Method: Compounds of invention were incubated with 0.6 nM [^3H]Prozosin for 60 minutes at 25° C. Non-specific binding was estimated in the presence of 10 μM phentolamine. Receptor proteins were filtered and washed, the filters were then counted to determine [^3H]Prozosin specifically bound. […] Biochemical assay results are presented as the percent inhibition of specific binding in Table 6.

[3] = biological target: T3, human recombinant adrenergic α2A receptor (Homo sapiens, UniProt P08913); test: Adrenergic α2A radioligand binding ([3H]MK-912); set-up: Inhibition of ligand binding, Adren. alpha2A: concentration or dose not given beside the values; conditions: for Inhibition of ligand binding, Adren. alpha2A: percent inhibition of specific binding
T3 construct: expressed in transfected cells; host or cells: insect Sf9 cells
T3 sequence (P08913 1-465): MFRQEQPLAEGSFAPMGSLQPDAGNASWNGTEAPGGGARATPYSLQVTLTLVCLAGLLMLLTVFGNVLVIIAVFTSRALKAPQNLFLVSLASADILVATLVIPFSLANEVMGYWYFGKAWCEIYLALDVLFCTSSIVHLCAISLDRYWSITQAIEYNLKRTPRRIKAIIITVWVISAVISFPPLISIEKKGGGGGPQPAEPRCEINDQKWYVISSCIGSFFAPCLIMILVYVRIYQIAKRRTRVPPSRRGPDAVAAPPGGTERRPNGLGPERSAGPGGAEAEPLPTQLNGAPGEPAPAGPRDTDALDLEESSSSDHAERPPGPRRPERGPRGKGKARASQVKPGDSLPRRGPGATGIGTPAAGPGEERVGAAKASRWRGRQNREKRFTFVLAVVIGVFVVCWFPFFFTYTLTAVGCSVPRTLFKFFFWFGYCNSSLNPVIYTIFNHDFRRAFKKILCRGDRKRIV
Summary of the method: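 Membranes from Sf9 cells expressing the receptor were incubated with 1 nM [3H]MK-912 for 60 minutes at 25° C in 50 mM Tris-HCl pH 7.4, 12.5 mM MgCl2, 2 mM EDTA. 10 μM WB-4101 defined non-specific binding. Values are percent inhibition of specific bound radioactivity after filtration.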

[4] = biological target: T4, human recombinant dopamine D2L receptor (Homo sapiens, UniProt P14416); test: Dopamine D2L radioligand binding ([3H]Spiperone); conditions: percent inhibition of specific binding
T4 construct: expressed in transfected cells; host or cells: CHO cells
Method: Non-specific binding was estimated in the presence of 10 μM Haloperidol. Receptor proteins were filtered and washed, the filters were then counted to determine [^3H]Spiperone specifically bound. […] Biochemical assay results are presented as the percent inhibition of specific binding in Table 6.

[5] = biological target: T5, Serotonin (5-Hydroxytryptamine) 5-HT7 (Homo sapiens, UniProt P34969); test: Serotonin 5-HT7 radioligand binding ([3H]LSD); set-up: Inhibition of ligand binding, Ser. 5-HT7: concentration or dose not given beside the values; conditions: for Inhibition of ligand binding, Ser. 5-HT7: percent inhibition of specific binding
T5 construct: expressed in transfected cells; host or cells: CHO cells
Method: Lysergic acid diethylamide (LSD) for 2 hours at 25° C. […] Receptor proteins were filtered and washed, the filters were then counted to determine [^3H]LSD specifically bound. […] Biochemical assay results are presented as the percent inhibition of specific binding in Table 6.

[6] = 0.1 nM [125I]Aminopotentidine, read-out: Histamine Binding H2, percent inhibition of specific binding
[7] = 1 μM compound, 0.1 nM [125I]Aminopotentidine, read-out: Histamine Binding H2, percent inhibition of specific binding
[8] = percent inhibition of specific binding, screened at 1 μM, read-out: Inhibition of ligand binding, Hist. H2

T4 sequence (P14416 whole entry): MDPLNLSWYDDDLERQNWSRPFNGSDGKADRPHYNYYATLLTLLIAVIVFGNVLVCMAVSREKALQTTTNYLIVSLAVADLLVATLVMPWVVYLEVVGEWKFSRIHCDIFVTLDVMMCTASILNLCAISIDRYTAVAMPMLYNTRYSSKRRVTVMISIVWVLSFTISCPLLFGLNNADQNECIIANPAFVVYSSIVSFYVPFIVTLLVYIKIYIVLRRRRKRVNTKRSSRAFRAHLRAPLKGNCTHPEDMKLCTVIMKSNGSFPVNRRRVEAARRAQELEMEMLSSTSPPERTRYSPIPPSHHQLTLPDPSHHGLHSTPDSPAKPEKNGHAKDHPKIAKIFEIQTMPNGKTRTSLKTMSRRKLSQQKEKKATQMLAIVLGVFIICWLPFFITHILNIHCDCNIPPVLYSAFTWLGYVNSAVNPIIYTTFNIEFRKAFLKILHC
T1 sequence (P25021 whole entry): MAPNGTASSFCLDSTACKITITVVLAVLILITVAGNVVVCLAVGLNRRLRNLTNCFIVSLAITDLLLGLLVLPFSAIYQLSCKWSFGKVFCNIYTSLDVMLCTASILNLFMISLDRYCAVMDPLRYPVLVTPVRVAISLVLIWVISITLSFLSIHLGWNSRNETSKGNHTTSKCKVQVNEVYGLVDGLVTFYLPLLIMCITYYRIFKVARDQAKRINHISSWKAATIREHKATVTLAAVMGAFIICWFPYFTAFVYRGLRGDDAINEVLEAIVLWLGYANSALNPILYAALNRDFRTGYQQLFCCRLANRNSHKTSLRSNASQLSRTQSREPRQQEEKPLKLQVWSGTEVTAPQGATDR
T5 sequence (P34969 whole entry): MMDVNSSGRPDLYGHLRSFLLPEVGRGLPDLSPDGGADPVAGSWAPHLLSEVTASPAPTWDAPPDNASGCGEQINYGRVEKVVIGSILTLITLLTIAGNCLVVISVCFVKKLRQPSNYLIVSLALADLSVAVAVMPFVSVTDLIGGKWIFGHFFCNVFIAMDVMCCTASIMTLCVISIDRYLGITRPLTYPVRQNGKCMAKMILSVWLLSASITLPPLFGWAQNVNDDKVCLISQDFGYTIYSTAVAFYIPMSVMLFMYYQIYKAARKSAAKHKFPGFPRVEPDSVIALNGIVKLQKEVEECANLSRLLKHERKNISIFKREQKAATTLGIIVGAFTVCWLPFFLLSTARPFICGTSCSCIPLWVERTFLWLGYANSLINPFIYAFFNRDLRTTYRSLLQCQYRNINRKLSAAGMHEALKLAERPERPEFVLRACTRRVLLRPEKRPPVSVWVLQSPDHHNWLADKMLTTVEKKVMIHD

Compound: Cc1ccc(CCn2c3c(c4ccccc42)CN(C)CC3)cc1 [Compound 1, 2,3,4,5-tetrahydro-2-methyl-5-(4-methylphenethyl)-1H-pyrido[4,3-b]indole]
- inhibition at 0.1 µM ([1]; 0.1 μM compound, 0.1 nM [125I]Aminopotentidine, read-out: Histamine Binding H2, percent inhibition of specific binding): 33%
- inhibition at 0.3 µM [1, 6]: 57%
- inhibition at 1 µM [1, 7]: 82%
- inhibition at 1 µM [1, 8]: 82%
- Inhibition of ligand binding, Adren. alpha1D [2]: 76%
- Inhibition of ligand binding, Adren. alpha2A [3]: 99%
- Inhibition of ligand binding, Dop. D2L [4]: 62%
- Inhibition of ligand binding, Ser. 5-HT7 [5]: 98%

Compound: CCOC(=O)N1CCc2c(c3cc(Br)ccc3n2CCc2ccc(C)nc2)C1 [Compound 18, ethyl 8-bromo-3,4-dihydro-5-(2-(6-methylpyridin-3-yl)ethyl)-1H-pyrido[4,3-b]indole-2(5H)-carboxylate]
- inhibition at 1 µM [1, 7]: 1%
- inhibition at 1 µM [1, 8]: 1%
- Inhibition of ligand binding, Adren. alpha1D [2]: −10%
- Inhibition of ligand binding, Adren. alpha2A [3]: −10%
- Inhibition of ligand binding, Dop. D2L [4]: −7%
- Inhibition of ligand binding, Ser. 5-HT7 [5]: 10%

Compound: CCOC(=O)N1CCc2c(c3cc(-c4cccnc4)ccc3n2CCc2ccc(C)nc2)C1 [Compound 19, ethyl 3,4-dihydro-5-(2-(6-methylpyridin-3-yl)ethyl)-8-(pyridin-3-yl)-1H-pyrido[4,3-b]indole-2(5H)-carboxylate]
- inhibition at 1 µM [1, 7]: 10%
- inhibition at 1 µM [1, 8]: 10%
- Inhibition of ligand binding, Adren. alpha1D [2]: −6%
- Inhibition of ligand binding, Adren. alpha2A [3]: −8%
- Inhibition of ligand binding, Dop. D2L [4]: −5%
- Inhibition of ligand binding, Ser. 5-HT7 [5]: 12%

Compound: Cc1ccc2c(c1)c1c(n2CCc2ccncc2)CCN(C)C1 [Compound 22, 2,3,4,5-tetrahydro-2,8-dimethyl-5-(2-(pyridin-4-yl)ethyl)-1H-pyrido[4,3-b]indole]
- inhibition at 0.3 µM [1, 6]: 29%
- inhibition at 1 µM [1, 7]: 49%
- inhibition at 1 µM [1, 8]: 53%
- Inhibition of ligand binding, Adren. alpha1D [2]: 83%
- Inhibition of ligand binding, Adren. alpha2A [3]: 72%
- Inhibition of ligand binding, Dop. D2L [4]: 27%
- Inhibition of ligand binding, Ser. 5-HT7 [5]: 99%

Compound: CCOC(=O)N1CCc2c(c3cc(C)ccc3n2CCc2ccccc2)C1 [Compound 24, ethyl 3,4-dihydro-8-methyl-5-phenethyl-1H-pyrido[4,3-b]indole-2(5H)-carboxylate]
- inhibition at 1 µM [1, 7]: 13%
- inhibition at 1 µM [1, 8]: 13%
- Inhibition of ligand binding, Adren. alpha1D [2]: 6%
- Inhibition of ligand binding, Adren. alpha2A [3]: 7%
- Inhibition of ligand binding, Dop. D2L [4]: 3%
- Inhibition of ligand binding, Ser. 5-HT7 [5]: −2%

Compound: CN1CCc2c(c3cc(Cl)ccc3n2CCc2ccccn2)C1 [Compound 30, 8-chloro-2,3,4,5-tetrahydro-2-methyl-5-(2-(pyridin-2-yl)ethyl)-1H-pyrido[4,3-b]indole]
- inhibition at 1 µM [1, 7]: 34%
- inhibition at 1 µM [1, 8]: 34%
- Inhibition of ligand binding, Adren. alpha1D [2]: 68%
- Inhibition of ligand binding, Adren. alpha2A [3]: 84%
- Inhibition of ligand binding, Dop. D2L [4]: 29%
- Inhibition of ligand binding, Ser. 5-HT7 [5]: 99%

Compound: Cc1ccc2c(c1)c1c(n2CCc2ccc(Cl)cc2)CCN(C)C1 [Compound 32, 5-(4-chlorophenethyl)-2,3,4,5-tetrahydro-2,8-dimethyl-1H-pyrido[4,3-b]indole]
- inhibition at 0.3 µM [1, 6]: 99%
- inhibition at 1 µM [1, 7]: 101%
- inhibition at 1 µM [1, 8]: 101%
- Inhibition of ligand binding, Adren. alpha1D [2]: 94%
- Inhibition of ligand binding, Adren. alpha2A [3]: 97%
- Inhibition of ligand binding, Dop. D2L [4]: 82%
- Inhibition of ligand binding, Ser. 5-HT7 [5]: 101%

Compound: Cc1ccc2c(c1)c1c(n2CCc2ccc(C)nc2)C(Br)C(=O)N(C)C1 (stereo not shown) [Compound 232, 4-bromo-1,2-dihydro-2,8-dimethyl-5-(2-(6-methylpyridin-3-yl)ethyl)-4H-pyrido[4,3-b]indol-3(5H)-one]
- inhibition at 1 µM [1, 7]: 3%
- inhibition at 1 µM [1, 8]: 3%
- Inhibition of ligand binding, Adren. alpha1D [2]: 5%
- Inhibition of ligand binding, Adren. alpha2A [3]: 2%
- Inhibition of ligand binding, Ser. 5-HT7 [5]: 6%

Compound: Cc1ccc2c(c1)c1c(n2CCCc2ccccn2)CCN(C)C1 [Compound 233, 2,3,4,5-tetrahydro-2,8-dimethyl-5-(3-(pyridin-2-yl)propyl)-1H-pyrido[4,3-b]indole]
- inhibition at 1 µM [1, 7]: 45%
- inhibition at 1 µM [1, 8]: 45%
- Inhibition of ligand binding, Adren. alpha1D [2]: 49%
- Inhibition of ligand binding, Adren. alpha2A [3]: 90%
- Inhibition of ligand binding, Ser. 5-HT7 [5]: 101%

Compound: Cc1ccc2c(c1)c1c(n2CCc2ccc(C(=O)O)nc2)CCN(C)C1 [Compound 255]
- inhibition at 1 µM [1, 7]: -15%
- inhibition at 1 µM [1, 8]: -15%
- Inhibition of ligand binding, Adren. alpha1D [2]: 2%
- Inhibition of ligand binding, Adren. alpha2A [3]: −8%
- Inhibition of ligand binding, Ser. 5-HT7 [5]: 11%

Compound: Cc1ccc(CCn2c3c(c4cc(C(=O)O)ccc42)CNCC3)cn1 [Compound 274, 2,3,4,5-tetrahydro-5-(2-(6-methylpyridin-3-yl)ethyl)-1H-pyrido[4,3-b]indole-8-carboxylic acid]
- inhibition at 1 µM [1, 8]: -2%
- Inhibition of ligand binding, Adren. alpha1D [2]: −16%
- Inhibition of ligand binding, Adren. alpha2A [3]: 7%
- Inhibition of ligand binding, Ser. 5-HT7 [5]: −3%

Compound: CN1CCc2c(c3ccccc3n2CCc2ccccn2)C1 [Compound 329, 2,3,4,5-tetrahydro-2-methyl-5-(2-(pyridin-2-yl)ethyl)-1H-pyrido[4,3-b]indole]
- inhibition at 1 µM [1, 8]: 16%
- Inhibition of ligand binding, Adren. alpha1D [2]: 4%
- Inhibition of ligand binding, Adren. alpha2A [3]: 37%
- Inhibition of ligand binding, Ser. 5-HT7 [5]: 78%

Compound: Cc1ccc2c(c1)c1c(n2CCc2ccc(C)nc2)CC[N+](C)([O-])C1 (stereo not shown) [Example 93, 2,8-dimethyl-5-(2-(6-methylpyridin-3-yl)ethyl)-2,3,4,5-tetrahydro-1H-pyrido[4,3-b]indole 2-oxide]
- Hist. H2 ([1]; inhibition profile): 19
- Adren. alpha1D ([2]; inhibition profile): 19
- Adren. alpha2A ([3]; inhibition profile): 1
- Ser. 5-HT7 ([5]; inhibition profile): 35
